pIC50, pKi: −log10 of the molar value.
Each compound was assayed on DU-145 (assay: Antiproliferative activity against human DU145 cells).
Type: functional, cell-based

SMILES	pIC50
COc1c(C)c2c(c(O)c1C/C=C(\C)CCC(=O)N[C@@H](CO)C(=O)O)C(=O)OC2	< 4.00
COC(=O)CNC(=O)CC/C(C)=C/Cc1c(O)c2c(c(C)c1OC)COC2=O	5.51
COc1c(C)c2c(c(O)c1C/C=C(\C)CCC(=O)N[C@@H](CCSC)C(=O)O)C(=O)OC2	< 4.00
COC(=O)[C@@H](Cc1c[nH]c2ccccc12)NC(=O)CC/C(C)=C/Cc1c(O)c2c(c(C)c1OC)COC2=O	< 4.00
COC(=O)[C@H](CCSC)NC(=O)CC/C(C)=C/Cc1c(O)c2c(c(C)c1OC)COC2=O	5.06
COC(=O)[C@H](CO)NC(=O)CC/C(C)=C/Cc1c(O)c2c(c(C)c1OC)COC2=O	4.89
COc1c(C)c2c(c(O)c1C/C=C(\C)CCC(=O)N[C@H](Cc1ccccc1)C(=O)NC[C@H]1O[C@@H](n3cnc4c(N)ncnc43)[C@H](O)[C@@H]1O)C(=O)OC2	< 4.00
COc1c(C)c2c(c(O)c1C/C=C(\C)CCC(=O)N[C@H](C(=O)NC[C@H]1O[C@@H](n3cnc4c(N)ncnc43)[C@H](O)[C@@H]1O)C(C)C)C(=O)OC2	< 4.00
COc1c(C)c2c(c(O)c1C/C=C(\C)CCC(=O)N[C@@H](Cc1ccccc1)C(=O)O)C(=O)OC2	< 4.00
COc1c(C)c2c(c(O)c1C/C=C(\C)CCC(=O)N[C@@H](Cc1c[nH]c3ccccc13)C(=O)O)C(=O)OC2	< 4.00
COC(=O)[C@@H](Cc1ccccc1)NC(=O)CC/C(C)=C/Cc1c(O)c2c(c(C)c1OC)COC2=O	5.00
COC(=O)[C@H](Cc1c[nH]c2ccccc12)NC(=O)CC/C(C)=C/Cc1c(O)c2c(c(C)c1OC)COC2=O	5.01
COc1c(C)c2c(c(O)c1C/C=C(\C)CCC(=O)NCC(=O)O)C(=O)OC2	< 4.00
COC(=O)[C@H](NC(=O)CC/C(C)=C/Cc1c(O)c2c(c(C)c1OC)COC2=O)C(C)C	4.80

These compounds were tested on K562 (assay: Antiproliferative activity against human K562 cells).
Type: functional, cell-based

SMILES	pIC50
COc1c(C)c2c(c(O)c1C/C=C(\C)CCC(=O)N[C@@H](CO)C(=O)O)C(=O)OC2	< 4.00
COC(=O)CNC(=O)CC/C(C)=C/Cc1c(O)c2c(c(C)c1OC)COC2=O	4.80
COc1c(C)c2c(c(O)c1C/C=C(\C)CCC(=O)N[C@@H](CCSC)C(=O)O)C(=O)OC2	< 4.00
COC(=O)[C@@H](Cc1c[nH]c2ccccc12)NC(=O)CC/C(C)=C/Cc1c(O)c2c(c(C)c1OC)COC2=O	4.85
COC(=O)[C@H](CCSC)NC(=O)CC/C(C)=C/Cc1c(O)c2c(c(C)c1OC)COC2=O	5.52
COC(=O)[C@H](CO)NC(=O)CC/C(C)=C/Cc1c(O)c2c(c(C)c1OC)COC2=O	5.38
COc1c(C)c2c(c(O)c1C/C=C(\C)CCC(=O)N[C@H](Cc1ccccc1)C(=O)NC[C@H]1O[C@@H](n3cnc4c(N)ncnc43)[C@H](O)[C@@H]1O)C(=O)OC2	< 4.00
COc1c(C)c2c(c(O)c1C/C=C(\C)CCC(=O)N[C@H](C(=O)NC[C@H]1O[C@@H](n3cnc4c(N)ncnc43)[C@H](O)[C@@H]1O)C(C)C)C(=O)OC2	< 4.00
COc1c(C)c2c(c(O)c1C/C=C(\C)CCC(=O)N[C@@H](Cc1ccccc1)C(=O)O)C(=O)OC2	< 4.00
COc1c(C)c2c(c(O)c1C/C=C(\C)CCC(=O)N[C@@H](Cc1c[nH]c3ccccc13)C(=O)O)C(=O)OC2	< 4.00
COC(=O)[C@@H](Cc1ccccc1)NC(=O)CC/C(C)=C/Cc1c(O)c2c(c(C)c1OC)COC2=O	4.54
COC(=O)[C@H](Cc1c[nH]c2ccccc12)NC(=O)CC/C(C)=C/Cc1c(O)c2c(c(C)c1OC)COC2=O	5.21
COc1c(C)c2c(c(O)c1C/C=C(\C)CCC(=O)NCC(=O)O)C(=O)OC2	5.00
COC(=O)[C@H](NC(=O)CC/C(C)=C/Cc1c(O)c2c(c(C)c1OC)COC2=O)C(C)C	4.54

What follows are compounds tested against Inosine-5'-monophosphate dehydrogenase 2 (Homo sapiens, UniProt P12268) (assay: Inhibition of IMPDH2 (unknown origin)).

SMILES	pKi
COc1c(C)c2c(c(O)c1C/C=C(\C)CCC(=O)N1CCC[C@H]1C(=O)O)C(=O)OC2	6.28
COc1c(C)c2c(c(O)c1C/C=C(\C)CCC(=O)N[C@@H](CO)C(=O)O)C(=O)OC2	5.55
COC(=O)CNC(=O)CC/C(C)=C/Cc1c(O)c2c(c(C)c1OC)COC2=O	6.31
COc1c(C)c2c(c(O)c1C/C=C(\C)CCC(=O)N[C@@H](CCSC)C(=O)O)C(=O)OC2	6.87
COC(=O)[C@@H](Cc1c[nH]c2ccccc12)NC(=O)CC/C(C)=C/Cc1c(O)c2c(c(C)c1OC)COC2=O	6.36
COC(=O)[C@H](CCSC)NC(=O)CC/C(C)=C/Cc1c(O)c2c(c(C)c1OC)COC2=O	6.83
COC(=O)[C@H](CO)NC(=O)CC/C(C)=C/Cc1c(O)c2c(c(C)c1OC)COC2=O	7.03
COc1c(C)c2c(c(O)c1C/C=C(\C)CCC(=O)N[C@H](Cc1ccccc1)C(=O)NC[C@H]1O[C@@H](n3cnc4c(N)ncnc43)[C@H](O)[C@@H]1O)C(=O)OC2	7.90
COc1c(C)c2c(c(O)c1C/C=C(\C)CCC(=O)N[C@H](C(=O)NC[C@H]1O[C@@H](n3cnc4c(N)ncnc43)[C@H](O)[C@@H]1O)C(C)C)C(=O)OC2	7.15
COc1c(C)c2c(c(O)c1C/C=C(\C)CCC(=O)N[C@@H](Cc1ccccc1)C(=O)O)C(=O)OC2	6.79
COc1c(C)c2c(c(O)c1C/C=C(\C)CCC(=O)N[C@@H](Cc1c[nH]c3ccccc13)C(=O)O)C(=O)OC2	6.63
COC(=O)[C@@H](Cc1ccccc1)NC(=O)CC/C(C)=C/Cc1c(O)c2c(c(C)c1OC)COC2=O	5.62
COC(=O)[C@H](Cc1c[nH]c2ccccc12)NC(=O)CC/C(C)=C/Cc1c(O)c2c(c(C)c1OC)COC2=O	6.63
COc1c(C)c2c(c(O)c1C/C=C(\C)CCC(=O)NCC(=O)O)C(=O)OC2	6.49
COC(=O)[C@H](NC(=O)CC/C(C)=C/Cc1c(O)c2c(c(C)c1OC)COC2=O)C(C)C	5.71

These compounds were tested on HL-60 (assay: Antiproliferative activity against human HL60 cells).
Type: functional, cell-based

SMILES	pIC50
COc1c(C)c2c(c(O)c1C/C=C(\C)CCC(=O)N[C@@H](CO)C(=O)O)C(=O)OC2	< 4.00
COC(=O)CNC(=O)CC/C(C)=C/Cc1c(O)c2c(c(C)c1OC)COC2=O	4.66
COc1c(C)c2c(c(O)c1C/C=C(\C)CCC(=O)N[C@@H](CCSC)C(=O)O)C(=O)OC2	< 4.00
COC(=O)[C@@H](Cc1c[nH]c2ccccc12)NC(=O)CC/C(C)=C/Cc1c(O)c2c(c(C)c1OC)COC2=O	4.46
COC(=O)[C@H](CCSC)NC(=O)CC/C(C)=C/Cc1c(O)c2c(c(C)c1OC)COC2=O	5.35
COC(=O)[C@H](CO)NC(=O)CC/C(C)=C/Cc1c(O)c2c(c(C)c1OC)COC2=O	4.74
COc1c(C)c2c(c(O)c1C/C=C(\C)CCC(=O)N[C@H](Cc1ccccc1)C(=O)NC[C@H]1O[C@@H](n3cnc4c(N)ncnc43)[C@H](O)[C@@H]1O)C(=O)OC2	< 4.00
COc1c(C)c2c(c(O)c1C/C=C(\C)CCC(=O)N[C@H](C(=O)NC[C@H]1O[C@@H](n3cnc4c(N)ncnc43)[C@H](O)[C@@H]1O)C(C)C)C(=O)OC2	< 4.00
COc1c(C)c2c(c(O)c1C/C=C(\C)CCC(=O)N[C@@H](Cc1ccccc1)C(=O)O)C(=O)OC2	< 4.00
COc1c(C)c2c(c(O)c1C/C=C(\C)CCC(=O)N[C@@H](Cc1c[nH]c3ccccc13)C(=O)O)C(=O)OC2	< 4.00
COC(=O)[C@@H](Cc1ccccc1)NC(=O)CC/C(C)=C/Cc1c(O)c2c(c(C)c1OC)COC2=O	4.39
COC(=O)[C@H](Cc1c[nH]c2ccccc12)NC(=O)CC/C(C)=C/Cc1c(O)c2c(c(C)c1OC)COC2=O	5.08
COc1c(C)c2c(c(O)c1C/C=C(\C)CCC(=O)NCC(=O)O)C(=O)OC2	< 4.00
COC(=O)[C@H](NC(=O)CC/C(C)=C/Cc1c(O)c2c(c(C)c1OC)COC2=O)C(C)C	4.44

The compounds below were run against Inosine-5'-monophosphate dehydrogenase 1 (Homo sapiens, UniProt P20839) (assay: Inhibition of IMPDH1 (unknown origin)).
Sequence of Inosine-5'-monophosphate dehydrogenase 1 (P20839 whole entry): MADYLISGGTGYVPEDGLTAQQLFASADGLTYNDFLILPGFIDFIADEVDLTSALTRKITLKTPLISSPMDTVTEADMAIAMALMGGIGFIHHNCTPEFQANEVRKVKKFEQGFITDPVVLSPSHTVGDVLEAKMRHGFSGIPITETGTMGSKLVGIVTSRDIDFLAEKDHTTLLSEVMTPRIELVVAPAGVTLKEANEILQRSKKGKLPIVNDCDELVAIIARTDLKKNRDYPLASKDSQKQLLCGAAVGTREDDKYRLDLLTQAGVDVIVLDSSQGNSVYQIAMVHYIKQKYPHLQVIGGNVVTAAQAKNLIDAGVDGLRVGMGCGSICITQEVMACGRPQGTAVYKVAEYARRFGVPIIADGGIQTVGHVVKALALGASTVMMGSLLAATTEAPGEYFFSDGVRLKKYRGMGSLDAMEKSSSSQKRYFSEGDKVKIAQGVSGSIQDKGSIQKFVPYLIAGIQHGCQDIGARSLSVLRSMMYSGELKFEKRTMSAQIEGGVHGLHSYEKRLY

SMILES	pKi
COc1c(C)c2c(c(O)c1C/C=C(\C)CCC(=O)N1CCC[C@H]1C(=O)O)C(=O)OC2	6.04
COc1c(C)c2c(c(O)c1C/C=C(\C)CCC(=O)N[C@@H](CO)C(=O)O)C(=O)OC2	5.55
COC(=O)CNC(=O)CC/C(C)=C/Cc1c(O)c2c(c(C)c1OC)COC2=O	6.28
COc1c(C)c2c(c(O)c1C/C=C(\C)CCC(=O)N[C@@H](CCSC)C(=O)O)C(=O)OC2	5.29
COC(=O)[C@@H](Cc1c[nH]c2ccccc12)NC(=O)CC/C(C)=C/Cc1c(O)c2c(c(C)c1OC)COC2=O	6.84
COC(=O)[C@H](CCSC)NC(=O)CC/C(C)=C/Cc1c(O)c2c(c(C)c1OC)COC2=O	5.66
COC(=O)[C@H](CO)NC(=O)CC/C(C)=C/Cc1c(O)c2c(c(C)c1OC)COC2=O	5.99
COc1c(C)c2c(c(O)c1C/C=C(\C)CCC(=O)N[C@H](Cc1ccccc1)C(=O)NC[C@H]1O[C@@H](n3cnc4c(N)ncnc43)[C@H](O)[C@@H]1O)C(=O)OC2	7.42
COc1c(C)c2c(c(O)c1C/C=C(\C)CCC(=O)N[C@H](C(=O)NC[C@H]1O[C@@H](n3cnc4c(N)ncnc43)[C@H](O)[C@@H]1O)C(C)C)C(=O)OC2	7.72
COc1c(C)c2c(c(O)c1C/C=C(\C)CCC(=O)N[C@@H](Cc1ccccc1)C(=O)O)C(=O)OC2	6.07
COc1c(C)c2c(c(O)c1C/C=C(\C)CCC(=O)N[C@@H](Cc1c[nH]c3ccccc13)C(=O)O)C(=O)OC2	7.25
COC(=O)[C@@H](Cc1ccccc1)NC(=O)CC/C(C)=C/Cc1c(O)c2c(c(C)c1OC)COC2=O	5.26
COC(=O)[C@H](Cc1c[nH]c2ccccc12)NC(=O)CC/C(C)=C/Cc1c(O)c2c(c(C)c1OC)COC2=O	6.13
COc1c(C)c2c(c(O)c1C/C=C(\C)CCC(=O)NCC(=O)O)C(=O)OC2	6.05
COC(=O)[C@H](NC(=O)CC/C(C)=C/Cc1c(O)c2c(c(C)c1OC)COC2=O)C(C)C	5.11

What follows are compounds tested on PC-3 (assay: Antiproliferative activity against human PC3 cells).
Type: functional, cell-based

SMILES	pIC50
COc1c(C)c2c(c(O)c1C/C=C(\C)CCC(=O)N[C@@H](CO)C(=O)O)C(=O)OC2	< 4.00
COC(=O)CNC(=O)CC/C(C)=C/Cc1c(O)c2c(c(C)c1OC)COC2=O	4.10
COc1c(C)c2c(c(O)c1C/C=C(\C)CCC(=O)N[C@@H](CCSC)C(=O)O)C(=O)OC2	< 4.00
COC(=O)[C@@H](Cc1c[nH]c2ccccc12)NC(=O)CC/C(C)=C/Cc1c(O)c2c(c(C)c1OC)COC2=O	< 4.00
COC(=O)[C@H](CO)NC(=O)CC/C(C)=C/Cc1c(O)c2c(c(C)c1OC)COC2=O	< 4.00
COc1c(C)c2c(c(O)c1C/C=C(\C)CCC(=O)N[C@H](Cc1ccccc1)C(=O)NC[C@H]1O[C@@H](n3cnc4c(N)ncnc43)[C@H](O)[C@@H]1O)C(=O)OC2	< 4.00
COc1c(C)c2c(c(O)c1C/C=C(\C)CCC(=O)N[C@H](C(=O)NC[C@H]1O[C@@H](n3cnc4c(N)ncnc43)[C@H](O)[C@@H]1O)C(C)C)C(=O)OC2	< 4.00
COc1c(C)c2c(c(O)c1C/C=C(\C)CCC(=O)N[C@@H](Cc1ccccc1)C(=O)O)C(=O)OC2	< 4.00
COc1c(C)c2c(c(O)c1C/C=C(\C)CCC(=O)N[C@@H](Cc1c[nH]c3ccccc13)C(=O)O)C(=O)OC2	< 4.00
COC(=O)[C@@H](Cc1ccccc1)NC(=O)CC/C(C)=C/Cc1c(O)c2c(c(C)c1OC)COC2=O	4.15
COC(=O)[C@H](Cc1c[nH]c2ccccc12)NC(=O)CC/C(C)=C/Cc1c(O)c2c(c(C)c1OC)COC2=O	< 4.00
COc1c(C)c2c(c(O)c1C/C=C(\C)CCC(=O)NCC(=O)O)C(=O)OC2	< 4.00
COC(=O)[C@H](NC(=O)CC/C(C)=C/Cc1c(O)c2c(c(C)c1OC)COC2=O)C(C)C	4.21

— ChEMBL document CHEMBL3097995, “NAD-based inhibitors with anticancer potential” (Bioorg Med Chem Lett, 2014)
